Data taken from patent US9255258B2 (priority 2009, dated 2016).
Read-outs that look alike come from different tables or passages of the source.

Legend:
Klenow (exo-) = Klenow (exo-) (Escherichia coli, UniProt P00582, D355A/E357A); details: P2-1 primer (template nucleotide A); 200 nM each of four base-labeled nucleotides, 250 nM Klenow (exo-), 10 mM CaCl2
Experimental: The following procedure was conducted using a SOLID sequencing instrument (SOLiD 0025) (Applied Biosystems, Foster City, Calif.), and template/primer duplexes immobilized on SOLiD S3 clonal beads, SOLiD flowcells, and Klenow polymerase.
Seven μM of the P2 primer, in 1×SSPE (150 mM NaCl, 10 mM sodium phosphate, 1 mM EDTA), was added to a SOLiD flowcell containing beads/template immobilized on a glass slide, at 25° C., then hybridized at 75° C. for 1 minute, 70° C. for 2 minutes, 65° C. for 2 minutes, 60° C. for 2 minutes, and washed with 1× Instrumentation Buffer (AB Part No. 4389784).
The labeled nucleotides were obtained from PerkinElmer Life and Analytical Science (Boston, Mass.): Cy5-dUTP, Cy3-dCTP, FAM-dGTP, and Texas Red (TxR)-dATP (base-labeled nucleotides). The Klenow fragment polymerase was obtained from New England Biolabs (No. M0212L, Ipswich, Mass.).
The beads were washed with 3 mL of Universal Buffer (50 mM NaCl, 10 mM Tris-HCl (pH 8), 10 mM CaCl2, 2 mM DTT). And 0.2 mL of Sensing Buffer Mix (200 nM each of Cy5-dUTP, Cy3-dCTP, Fam-dGTP, and Texas Red-dATP; 250 nM Klenow (exo-) in the Universal Buffer) was injected into the flowcell and incubated for 5 minutes at room temperature. […]

[1] = target: Phi29 (exo-) (D169A mutant) (Bacillus phage phi29, UniProt P03680, D169A)
Experimental: Base Reading Mix: 50 mM Tris (pH 7.5), 50 mM NaCl, 5 mM CaCl2, 0.2% BSA, 80 μg/mL glucose oxidase; 2000 U/mL Katalase; 1 mM Trolox; 0.5% glucose; 250 nM Phi29 (exo-) (D169A mutant), 500 nM non-hydrolyzable nucleotide (AF647-C6 alkyl linker-alpha-thio-dA4P nucleotide analog, labeled at the terminal phosphate with ALEXA FLUOR 647).
Commercial nanoparticles (605 ITK SAV quantum dots, Invitrogen, catalog # Q10001MP) were immobilized onto PEG/PEG-biotin coverslip surfaces at 5 pM for 4 minutes. The surface-immobilized nanoparticles were saturated with hairpin molecules via the biotin in the loop.
All the transient-binding and extension steps as well as the protocols and the imaging conditions were identical to the ones described in Example 8 above (6-Base Extension, 2-Color Sequencing, in the Presence of Calcium). In this experiment only one non-hydrolyzable-AF647-dA4P were used in all transient-binding steps.
The transient-binding reaction steps, using labeled non-hydrolyzable nucleotides steps, were conducted at room temperature and included: • 1.

Cy5-dUTP
bead fluorescence after wash (Klenow (exo-)): fluoresce to a greater degree than the other dye-labeled nucleotides

AF647-C6 alkyl linker-alpha-thio-dA4P nucleotide analog [alpha-thio-dA4P-AF647]
signal from transiently-bound nucleotide ([1]; Base Reading Mix containing 5 mM MnCl2 (instead of CaCl2), correct nucleotide, 500 nM): no detectable signal
signal from transiently-bound nucleotide ([1]; after addition of CaCl2 (approximated 5-10 mM) to the manganese reaction, without washing): detectable immediately upon addition of the calcium
